Where two headings read alike, the source gives them in different places. Some results are limits rather than exact numbers.

Experiment [1] has as its system common mosquito (Culex pipiens pallens). In words: Inhibition of emergence of last instar larvae of common mosquito (Test Example 1). Format: in vivo. Here is the method:
An emulsifiable concentrate prepared according to Formulation Example 1 was diluted with water to make a designed concentration. The dilution (0.7 ml) was added to 100 ml of distilled water. Last instar larvae of common mosquito (Culex pipiens pallens) were released therein and reared for 7 days until their emergence, and the concentration for 50% inhibition (IC50) was examined.

Experiment [2] has as its system housefly (Musca domestica). Nature of the experiment: Inhibition test on housefly larvae reared in artificial culture until pupation, pupae examined (Test Example 2). It is filed as in vivo. The procedure: Powdered animal feed (2 g) was thoroughly mixed with bran (14 g). An emulsifiable concentrate prepared according to Formulation Example 1 was diluted with water to a designed concentration, and the dilution was added to the above mixture. The resultant mixture was stirred well to make an artificial culture. Thirty larvae of housefly (Musca domestica) were reared therein until their pupation. The obtained pupae were placed into a plastic cup, and the concentration for 50% inhibition was examined in the same manner as in Test Example 1.

The mark [3] stands for this setting: last instar larvae, 0.7 ml dilution of emulsifiable concentrate added to 100 ml distilled water, reared for 7 days until emergence.
Setting [4] is: thirty larvae reared in artificial culture (powdered animal feed 2 g, bran 14 g, diluted emulsifiable concentrate) until pupation, pupae placed into plastic cup.

In the case of `Fc1cc(F)cc(Oc2ccc(OCCCn3cccn3)cc2)c1` [Pyrazole compound (I), 1-{3-[4-(3,5-difluorophenoxy)phenoxy]propyl}pyrazole], the entries for the “concentration for 50% inhibition (IC50)” value in experiment [1] (setting [3]) and in experiment [2] (setting [4]) were 0.000009 ppm and 0.14 ppm, respectively.
In the case of `Cn1nccc1COc1ccc(Oc2ccccc2)cc1` [(C)], the “concentration for 50% inhibition (IC50)” value in experiment [2] (setting [4]) is over 3 ppm.
On the same count and under the same terms, under `Clc1cc(Cl)cc(Oc2ccc(OCCCn3cccn3)cc2)c1` [(G)] stands 1.8 ppm.
For the molecule `c1ccc(Oc2ccc(OCCCn3cccn3)cc2)cc1` [(F)], the “concentration for 50% inhibition (IC50)” value in experiment [1] (setting [3]) was found to be 0.0007 ppm.
In the case of `COC(C)(C)CCCC(C)CC=CC(C)=CC(=O)OC(C)C` (centres unmarked) [(A), methoprene], the entries for the “concentration for 50% inhibition (IC50)” value in experiment [1] (168 h) and in experiment [2] were 0.00018 ppm and 2.3 ppm, respectively.
Consider `Clc1cccc(Oc2ccc(OCCn3cccn3)cc2)c1` [(E)], for which, in experiment [2] (setting [4]), the “concentration for 50% inhibition (IC50)” value came out at 1.0 ppm.
As for `c1ccc(Oc2ccc(OCCn3cccn3)cc2)cc1` [(D)], in experiment [1] (setting [3]), the “concentration for 50% inhibition (IC50)” value came to 0.00023 ppm.
Take `c1ccc(Oc2ccc(OCCCc3ccccn3)cc2)cc1` [(B)]: the “concentration for 50% inhibition (IC50)” value in experiment [1] (setting [3]) is given as 0.00013 ppm; in experiment [2] (setting [4]), over 3 ppm.

Source of the values: patent publication US5137907A, “1-(3-(4-(3,5-difluorophenoxy) phenoxy) propyl) - pyrazole, and its production and use” (Sumitomo Chemical Company, Limited, priority 1988, dated 1992).
